Values joined by “and” are separate entries in the source; they are usually repeats but may differ in a detail not shown here. Identical values can stand only once. Like-named read-outs stand apart in the source and are kept apart here.
Key:
[1] = Pharmacokinetic study in PXB-mice (human liver-chimeric)
[2] = molecular target: T1, human calpain (Homo sapiens, UniProt P07384); assay: Human calpain activity assay; assay type: biochemical; conditions: for %inhibition against humanCalpain: triplicate
T1 sequence (P07384 2-714): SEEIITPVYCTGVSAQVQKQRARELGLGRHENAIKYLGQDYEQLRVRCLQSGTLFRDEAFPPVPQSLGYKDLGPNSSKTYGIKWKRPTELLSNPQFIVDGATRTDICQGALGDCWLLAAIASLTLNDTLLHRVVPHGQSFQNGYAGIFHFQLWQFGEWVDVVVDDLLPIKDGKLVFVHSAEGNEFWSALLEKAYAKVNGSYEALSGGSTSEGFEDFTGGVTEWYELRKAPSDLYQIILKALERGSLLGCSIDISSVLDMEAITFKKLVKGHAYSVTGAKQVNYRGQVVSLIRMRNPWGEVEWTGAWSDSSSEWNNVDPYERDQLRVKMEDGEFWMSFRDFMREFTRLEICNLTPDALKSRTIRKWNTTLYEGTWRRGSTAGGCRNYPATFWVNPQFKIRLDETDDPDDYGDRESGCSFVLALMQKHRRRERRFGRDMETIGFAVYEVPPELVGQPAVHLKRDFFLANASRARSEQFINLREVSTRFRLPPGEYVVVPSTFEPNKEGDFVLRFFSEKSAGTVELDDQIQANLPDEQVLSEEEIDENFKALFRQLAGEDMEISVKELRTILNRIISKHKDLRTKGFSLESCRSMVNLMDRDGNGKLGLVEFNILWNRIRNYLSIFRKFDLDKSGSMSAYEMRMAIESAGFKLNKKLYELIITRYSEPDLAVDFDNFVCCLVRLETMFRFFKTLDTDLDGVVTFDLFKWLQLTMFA
T1 sequence (P04632 1-268 partner): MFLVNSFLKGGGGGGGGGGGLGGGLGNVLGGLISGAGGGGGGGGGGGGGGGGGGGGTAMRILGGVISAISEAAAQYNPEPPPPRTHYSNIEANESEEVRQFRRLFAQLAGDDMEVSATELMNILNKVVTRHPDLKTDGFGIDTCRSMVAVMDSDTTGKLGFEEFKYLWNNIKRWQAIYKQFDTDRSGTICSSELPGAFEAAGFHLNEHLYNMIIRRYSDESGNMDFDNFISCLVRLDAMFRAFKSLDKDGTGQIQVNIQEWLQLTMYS

[3] = tested on: SARS-CoV-2 TKYTS14631/ο BA.5; assay: microbe, parasite or virus in culture; assay type: cell-based
[4] = tested on: SARS-CoV-2 TKYS02037/ο BA.2; assay: microbe, parasite or virus in culture; assay type: cell-based
[5] = tested on: SARS-CoV-2 TKYX00012/ο BA.1; assay: microbe, parasite or virus in culture; assay type: cell-based
[6] = tested on: SARS-CoV-2 UT-NCD1757-1N/ο BA.2.75; assay: microbe, parasite or virus in culture; assay type: cell-based
[7] = tested on: SARS-CoV-2^WK-521; assay: microbe, parasite or virus in culture; assay type: cell-based; set-up: EC95, individual assays / EC95, Average: unit: µM

CC(C)(C)[C@H](NC(=O)C(F)(F)F)C(=O)N1C[C@H]2[C@@H]([C@H]1C(=O)N[C@@H](C[C@@H]1CCNC1=O)C(=O)c1nc3c(F)cccc3s1)C2(C)C [TKB245]
Plasma concentration ([1]; PXB-mice, p.o. 10 mg/kg, 24 hr, individual mice, listed as TKB0245, 10 mg/kg): 0.03 µg/ml (2×) and 0.02 µg/ml | Plasma concentration ([1]; i.v., 10 min, individual animals (3 per time point), LC/MS/MS, listed as TKB0245): 8436.54 ng/mL and 8433.45 ng/mL and 10625.21 ng/mL | Plasma concentration ([1]; i.v., 60 min, individual animals (3 per time point), LC/MS/MS, listed as TKB0245): 2816.02 ng/mL and 2507.33 ng/mL and 3228.12 ng/mL | Plasma concentration ([1]; i.v., 240 min, individual animals (3 per time point), LC/MS/MS, listed as TKB0245): 47.02 ng/mL and 52.34 ng/mL and 93.04 ng/mL | Plasma concentration ([1]; i.v., 480 min, individual animals (3 per time point), LC/MS/MS, listed as TKB0245): 10.40 ng/mL and 14.76 ng/mL and 18.04 ng/mL | Plasma concentration ([1]; i.v., 1440 min, individual animals (3 per time point), LC/MS/MS, listed as TKB0245): 13.63 ng/mL and 11.63 ng/mL and 10.43 ng/mL | Oral F ([1]; male PXB-mouse 10 mg/kg i.v. and p.o., dose-normalized AUC ratio, 10 mg/kg): 47.7% and 48% and 48¶ % | Plasma concentration ([1]; p.o., 10 min, individual animals (3 per time point), LC/MS/MS, listed as TKB0245): 914.50 ng/mL and 1553.11 ng/mL and 2872.30 ng/mL | Plasma concentration ([1]; p.o., 60 min, individual animals (3 per time point), LC/MS/MS, listed as TKB0245): 1278.12 ng/mL and 1343.67 ng/mL and 1794.27 ng/mL | Plasma concentration ([1]; p.o., 240 min, individual animals (3 per time point), LC/MS/MS, listed as TKB0245): 152.94 ng/mL and 98.79 ng/mL and 128.84 ng/mL | Plasma concentration ([1]; p.o., 480 min, individual animals (3 per time point), LC/MS/MS, listed as TKB0245): 41.61 ng/mL and 34.39 ng/mL and 32.81 ng/mL | Plasma concentration ([1]; p.o., 1440 min, individual animals (3 per time point), LC/MS/MS, listed as TKB0245): 25.98 ng/mL and 21.91 ng/mL and 27.88 ng/mL | Effect on human calpain (in words) [2]: neither of human cysteine enzymes, cathepsin L and calpain, were significantly affected | %inhibition against humanCalpain ([2]; 0.000128 µM): 0% | %inhibition against humanCalpain ([2]; 0.00064 µM): 0% | %inhibition against humanCalpain ([2]; 0.0032 µM): 0% | %inhibition against humanCalpain ([2]; 0.08 µM): 0% | %inhibition against humanCalpain ([2]; 0.4 µM): 0% | %inhibition against humanCalpain ([2]; 2 µM): 9.6344% and 1.813% | IC50 ([2]; 60 minute incubation, mean ± 1 S.D., n=3, read-out: IC50, human calpains): > 2000 nM | EC50 ([3]; read-out: EC50 against TKYTS14631/ο BA.5): 19 ± 5 nM | EC50 ([3]; read-out: EC50 ο BA5, Average): 18.8 nM | EC50 ([3]; read-out: EC50 ο BA5, individual assays): 16.1 nM and 24.7 nM and 15.6 nM | EC50 ([4]; read-out: EC50 against TKYVS2037/ο BA.2): 45 ± 14 nM | EC50 ([4]; read-out: EC50 ο BA2, Average): 45.3 nM | EC50 ([4]; read-out: EC50 ο BA2, individual assays): 60 nM and 32 nM and 44 nM | EC50 ([5]; read-out: EC50 ο BA1, Average): 13.7 nM | EC50 ([5]; read-out: EC50 ο BA1, individual assays): 10 nM and 7 nM and 24.2 nM | EC50 ([6]; read-out: EC50 against UT-NCD1757-1N/ο BA.2.75): 49 ± 5 nM | EC50 ([6]; read-out: EC50 ο BA2.75, Average): 49.3 nM | EC50 ([6]; read-out: EC50 ο BA2.75, individual assays): 55 nM and 44 nM | EC95, Average [7]: 0.53 | EC95, individual assays [7]: 0.59 and 0.09 and 0.55 and 0.89 | SARS-CoV2 RNA VeroE6 cell-based assay EC95 [7]: 530 nM and 530 ± 330 nM | EC50 ([7]; read-out: EC50, Average): 31.2 nM | EC50 ([7]; read-out: EC50, VeroE6 + 2 µM CP100356): 1 ± 1 nM | EC50 ([7]; read-out: EC50, VeroE6 with CP100356, Average): 1.56 nM | EC50 ([7]; read-out: EC50, VeroE6 with CP100356, individual assays): 1.4 nM and 2.37 nM and 0.9 nM | EC50 ([7]; read-out: EC50, individual assays): 40 nM and 20 nM and 50 nM and 15 nM | EC50 ([7]; read-out: SARS-CoV2 RNA VeroE6 cell-based assay EC50): 30 ± 20 nM

— PMC9958325 (Nature Communications, 2023)
